# Measured values: ChEMBL document CHEMBL5523718, “Design, synthesis, molecular modeling, in vitro and in vivo biological evaluation of potent anthranilamide derivatives as dual P-glycoprotein and CYP3A4 inhibitors” (Eur J Med Chem, 2024)
# pEC50, pIC50: −log10 of the molar value.
# Key:
# [1] = Half life in CD-1 mouse at 10 mg/kg, po measured upto 8 hrs by LC-MS/MS analysis; assay type: ADME, organism-based; conditions: in vivo
# [2] = MRT in CD-1 mouse at 10 mg/kg, po measured upto 8 hrs by LC-MS/MS analysis; assay type: ADME, organism-based; conditions: in vivo
# [3] = target: T1, ATP-dependent translocase ABCB1 (Homo sapiens, UniProt P08183); experiment: Inhibition of P-gp in human MES-SA/Dx5 cells; assay type: cell-based
# MES-SA/Dx5 = experiment: Cytotoxicity against human MES-SA/Dx5 cells at 1.28 uM incubated for 3 days by MTT assay relative to control; assay type: functional; conditions: time 3 day
# [4] = Equilibrium solubility of compound in PBS at pH 7.4; assay type: physicochemical
# P-gp (ABCB1) [5] = target: T2, P-gp (ABCB1) (Homo sapiens, UniProt P08183); experiment: Inhibition of P-gp in human Caco-2 cells at 10 uM in presence of paclitaxel relative to control; assay type: cell-based; conditions: Caco-2, probe paclitaxel
# P-gp (ABCB1) [6] = target: T2, P-gp (ABCB1); experiment: Inhibition of P-gp in human Caco-2 cells at 5 uM in presence of paclitaxel relative to control; assay type: cell-based; conditions: Caco-2, probe paclitaxel
# P-gp (ABCB1) [7] = target: T2, P-gp (ABCB1); experiment: Inhibition of P-gp in human Caco-2 cells at 1 uM in presence of paclitaxel relative to control; assay type: cell-based; conditions: Caco-2, probe paclitaxel
# P-gp (ABCB1) [8] = target: T2, P-gp (ABCB1); experiment: Inhibition of P-gp in human Caco-2 cells at 0.1 uM in presence of paclitaxel relative to control; assay type: cell-based; conditions: Caco-2, probe paclitaxel
# P-gp (ABCB1) [9] = target: T2, P-gp (ABCB1); experiment: Inhibition of P-gp in human Caco-2 cells at 0.01 uM in presence of paclitaxel relative to control; assay type: cell-based; conditions: Caco-2, probe paclitaxel
# [10] = target: T1, ATP-dependent translocase ABCB1; experiment: Inhibition of P-gp in human Caco-2 cells in presence of paclitaxel; assay type: cell-based
# [11] = Metabolic stability in human liver microsome assessed as half life; assay type: ADME; conditions: liver microsomes
# [12] = Metabolic stability in rat liver microsome assessed as half life; assay type: ADME; conditions: liver microsomes
# [13] = Metabolic stability in mouse liver microsome assessed as half life; assay type: ADME; conditions: liver microsomes
# [14] = Metabolic stability in monkey liver microsome assessed as half life; assay type: ADME, Macaca mulatta; conditions: rhesus monkey, liver microsomes
# [15] = Metabolic stability in human liver microsome assessed as intrinsic clearance; assay type: ADME; conditions: microsomes
# [16] = Metabolic stability in rat liver microsome assessed as intrinsic clearance; assay type: ADME; conditions: microsomes
# [17] = Metabolic stability in mouse liver microsome assessed as intrinsic clearance; assay type: ADME; conditions: microsomes
# [18] = Metabolic stability in monkey liver microsome assessed as intrinsic clearance; assay type: ADME, Macaca mulatta; conditions: rhesus monkey, microsomes
# [19] = target: T1, ATP-dependent translocase ABCB1; experiment: Inhibition of P-gp (unknown origin) ATPase activity
# [20] = target: T3, Broad substrate specificity ATP-binding cassette transporter ABCG2 (Homo sapiens, UniProt Q9UNQ0); experiment: Inhibition of BCRP (unknown origin) ATPase activity
# T3 sequence (Q9UNQ0 whole entry): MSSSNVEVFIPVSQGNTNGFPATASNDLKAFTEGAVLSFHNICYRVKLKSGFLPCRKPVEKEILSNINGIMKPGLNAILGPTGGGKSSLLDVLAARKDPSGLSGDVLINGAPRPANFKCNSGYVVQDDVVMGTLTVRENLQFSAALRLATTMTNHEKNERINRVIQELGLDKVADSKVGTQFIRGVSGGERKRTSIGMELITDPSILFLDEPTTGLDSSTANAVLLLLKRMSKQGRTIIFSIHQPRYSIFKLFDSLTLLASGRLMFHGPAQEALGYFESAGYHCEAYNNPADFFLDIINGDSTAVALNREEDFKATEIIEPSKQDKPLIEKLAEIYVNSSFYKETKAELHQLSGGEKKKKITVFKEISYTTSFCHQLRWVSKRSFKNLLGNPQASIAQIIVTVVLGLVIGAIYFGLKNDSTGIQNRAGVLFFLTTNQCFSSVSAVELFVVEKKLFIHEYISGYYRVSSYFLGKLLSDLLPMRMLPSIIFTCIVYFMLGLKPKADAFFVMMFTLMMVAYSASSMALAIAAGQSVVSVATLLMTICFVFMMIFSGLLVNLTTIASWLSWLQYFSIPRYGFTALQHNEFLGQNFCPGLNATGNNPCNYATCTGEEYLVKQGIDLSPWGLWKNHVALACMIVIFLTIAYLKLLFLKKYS
# [21] = Inhibition of MRP1 (unknown origin) ATPase activity; set-up: species or system Homo sapiens
# [22] = target: ATP-binding cassette sub-family C member 2 (Homo sapiens, UniProt Q92887); experiment: Inhibition of MRP2 (unknown origin) ATPase activity
# Cytochrome P450 3A4 [23] = target: T4, Cytochrome P450 3A4 (Homo sapiens, UniProt P08684); experiment: Inhibition of CYP3A4 in human liver using luciferin-IPA as substrate microsome preincubated with compound for 10 mins followed by NADPH addition and measured after 5 mins; assay type: ADME, microsomes
# Cytochrome P450 3A4 [24] = target: T4, Cytochrome P450 3A4; experiment: Inhibition of CYP3A4 in human Hepatocyte using Luciferin-IPA as substrate; assay type: ADME, cell-based
# [25] = Apparent permeability of compound across basolateral to apical side in human Caco-2 cells; assay type: ADME, cell-based
# [26] = Apparent permeability of compound across apical to basolateral side in human Caco-2 cells; assay type: ADME, cell-based
# [27] = Apparent permeability across apical to basolateral side in human Caco-2 cells assessed as drug recovery; assay type: ADME, cell-based; conditions: read-out: Drug recovery
# [28] = Apparent permeability across basolateral to apical side in human Caco-2 cells assessed as drug recovery; assay type: ADME, cell-based; conditions: read-out: Drug recovery
# [29] = Efflux ratio of apparent permeability across basolateral to apical side over apical to basolateral side in human Caco-2 cells; assay type: ADME, cell-based
# [30] = Tmax in Sprague-Dawley rat at 20 mg/kg, po measured upto 24 hrs by LC-MS/MS analysis; assay type: ADME, organism-based; conditions: in vivo
# [31] = Cmax in Sprague-Dawley rat at 20 mg/kg, po measured upto 24 hrs by LC-MS/MS analysis; assay type: ADME, organism-based; conditions: in vivo
# [32] = AUC (0 to t) in Sprague-Dawley rat at 20 mg/kg, po measured upto 24 hrs by LC-MS/MS analysis; assay type: ADME, organism-based; conditions: in vivo
# [33] = MRT in Sprague-Dawley rat at 20 mg/kg, po measured upto 24 hrs by LC-MS/MS analysis; assay type: ADME, organism-based; conditions: in vivo
# T2 sequence (P08183 whole entry): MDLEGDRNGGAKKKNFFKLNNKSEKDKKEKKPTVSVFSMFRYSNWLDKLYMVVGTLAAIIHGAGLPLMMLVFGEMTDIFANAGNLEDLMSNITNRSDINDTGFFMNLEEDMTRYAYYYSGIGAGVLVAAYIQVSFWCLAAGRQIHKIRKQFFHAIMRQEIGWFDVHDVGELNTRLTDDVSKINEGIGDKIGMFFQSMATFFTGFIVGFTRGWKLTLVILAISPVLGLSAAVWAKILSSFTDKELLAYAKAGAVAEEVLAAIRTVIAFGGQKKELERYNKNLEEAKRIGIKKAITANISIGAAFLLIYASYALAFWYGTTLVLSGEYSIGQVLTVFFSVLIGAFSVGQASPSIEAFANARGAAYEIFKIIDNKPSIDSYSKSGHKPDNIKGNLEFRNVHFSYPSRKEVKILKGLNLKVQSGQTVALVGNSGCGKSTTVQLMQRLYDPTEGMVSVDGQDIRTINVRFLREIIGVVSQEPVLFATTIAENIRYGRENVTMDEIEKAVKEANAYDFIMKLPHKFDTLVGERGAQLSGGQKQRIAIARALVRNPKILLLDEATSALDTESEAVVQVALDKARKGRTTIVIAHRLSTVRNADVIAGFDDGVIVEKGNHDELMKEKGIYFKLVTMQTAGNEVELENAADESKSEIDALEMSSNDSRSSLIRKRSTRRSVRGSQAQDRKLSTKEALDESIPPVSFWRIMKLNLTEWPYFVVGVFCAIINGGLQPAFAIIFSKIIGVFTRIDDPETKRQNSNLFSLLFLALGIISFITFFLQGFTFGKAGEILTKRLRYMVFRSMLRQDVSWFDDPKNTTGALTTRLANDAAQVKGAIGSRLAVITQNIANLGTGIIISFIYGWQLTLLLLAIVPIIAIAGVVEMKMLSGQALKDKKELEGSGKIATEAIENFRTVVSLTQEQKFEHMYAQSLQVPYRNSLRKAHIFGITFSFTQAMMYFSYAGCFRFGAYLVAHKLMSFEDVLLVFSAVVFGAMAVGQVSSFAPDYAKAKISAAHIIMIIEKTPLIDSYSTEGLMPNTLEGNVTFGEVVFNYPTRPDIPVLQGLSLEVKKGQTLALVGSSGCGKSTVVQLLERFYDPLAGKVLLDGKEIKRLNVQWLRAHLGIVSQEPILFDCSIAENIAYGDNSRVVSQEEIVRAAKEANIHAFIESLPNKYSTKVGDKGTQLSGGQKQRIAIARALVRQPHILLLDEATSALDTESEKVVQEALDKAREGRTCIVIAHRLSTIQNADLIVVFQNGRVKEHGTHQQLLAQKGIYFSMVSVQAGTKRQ
# T1 sequence (P08183 whole entry): as above
# T4 sequence (P08684 whole entry): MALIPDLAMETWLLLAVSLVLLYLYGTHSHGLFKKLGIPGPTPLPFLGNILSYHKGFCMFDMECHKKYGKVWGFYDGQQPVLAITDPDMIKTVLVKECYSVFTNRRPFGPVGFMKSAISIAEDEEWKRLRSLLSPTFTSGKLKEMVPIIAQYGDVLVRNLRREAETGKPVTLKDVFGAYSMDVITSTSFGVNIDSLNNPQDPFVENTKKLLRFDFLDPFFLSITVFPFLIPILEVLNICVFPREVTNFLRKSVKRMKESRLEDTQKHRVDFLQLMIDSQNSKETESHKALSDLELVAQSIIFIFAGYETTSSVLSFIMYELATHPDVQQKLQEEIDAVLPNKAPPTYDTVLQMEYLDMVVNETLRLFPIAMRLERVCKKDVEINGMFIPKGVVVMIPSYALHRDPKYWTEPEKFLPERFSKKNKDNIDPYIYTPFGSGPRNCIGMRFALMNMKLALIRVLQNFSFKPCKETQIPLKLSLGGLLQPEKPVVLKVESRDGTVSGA
# Sequence of ATP-binding cassette sub-family C member 2 (Q92887 whole entry): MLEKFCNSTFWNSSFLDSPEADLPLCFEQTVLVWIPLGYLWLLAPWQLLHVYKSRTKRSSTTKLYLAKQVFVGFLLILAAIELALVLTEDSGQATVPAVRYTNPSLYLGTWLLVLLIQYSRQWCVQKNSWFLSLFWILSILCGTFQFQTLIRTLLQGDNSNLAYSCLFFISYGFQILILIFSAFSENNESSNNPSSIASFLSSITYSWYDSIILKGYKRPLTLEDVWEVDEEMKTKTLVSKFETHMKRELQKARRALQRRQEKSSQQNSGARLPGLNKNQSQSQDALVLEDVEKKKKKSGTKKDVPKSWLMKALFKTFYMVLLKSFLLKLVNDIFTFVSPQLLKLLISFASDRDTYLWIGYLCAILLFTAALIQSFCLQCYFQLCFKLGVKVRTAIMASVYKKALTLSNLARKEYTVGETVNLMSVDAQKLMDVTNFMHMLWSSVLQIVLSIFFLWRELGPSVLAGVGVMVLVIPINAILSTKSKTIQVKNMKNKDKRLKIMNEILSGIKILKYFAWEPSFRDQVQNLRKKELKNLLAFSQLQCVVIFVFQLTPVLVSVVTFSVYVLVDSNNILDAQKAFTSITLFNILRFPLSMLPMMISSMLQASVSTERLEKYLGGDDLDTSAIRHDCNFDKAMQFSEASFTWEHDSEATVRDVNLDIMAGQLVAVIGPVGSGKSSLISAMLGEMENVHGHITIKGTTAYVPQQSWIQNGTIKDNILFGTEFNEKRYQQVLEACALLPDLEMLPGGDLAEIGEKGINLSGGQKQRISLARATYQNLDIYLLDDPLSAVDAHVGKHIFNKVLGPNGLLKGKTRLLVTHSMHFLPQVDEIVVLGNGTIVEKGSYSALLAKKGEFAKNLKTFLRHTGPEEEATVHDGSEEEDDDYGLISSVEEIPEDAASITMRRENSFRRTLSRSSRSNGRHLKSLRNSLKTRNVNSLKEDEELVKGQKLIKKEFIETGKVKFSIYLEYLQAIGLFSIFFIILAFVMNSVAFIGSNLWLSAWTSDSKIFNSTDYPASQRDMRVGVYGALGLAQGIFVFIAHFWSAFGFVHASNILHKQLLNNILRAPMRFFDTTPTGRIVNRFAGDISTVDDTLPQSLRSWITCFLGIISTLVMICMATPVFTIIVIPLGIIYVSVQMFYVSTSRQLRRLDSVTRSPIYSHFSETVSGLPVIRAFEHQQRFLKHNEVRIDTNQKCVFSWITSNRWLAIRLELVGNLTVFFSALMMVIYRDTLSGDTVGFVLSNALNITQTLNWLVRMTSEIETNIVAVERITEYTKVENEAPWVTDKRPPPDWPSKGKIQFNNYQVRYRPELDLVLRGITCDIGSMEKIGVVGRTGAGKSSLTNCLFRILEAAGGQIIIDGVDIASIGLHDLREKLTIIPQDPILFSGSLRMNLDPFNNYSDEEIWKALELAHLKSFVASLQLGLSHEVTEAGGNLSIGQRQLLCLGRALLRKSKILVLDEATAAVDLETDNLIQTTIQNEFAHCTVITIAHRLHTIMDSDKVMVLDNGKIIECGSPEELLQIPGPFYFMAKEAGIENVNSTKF
smiles,measurement,setting,value
COc1cc2c(cc1OC)CN(CCc1ccc(NC(=O)c3cc(OC)c(OC)cc3NC(=O)c3cnc4ccccc4c3)cc1)CC2,half-life,[1],1.11 h
same,MRT,[2],1.26 h
same,pEC50,[3],7.46
same,Activity,MES-SA/Dx5,5%
same,solubility thermodynamic,[4]; PBS,0.44 µM
same,inhibition at 10 µM,P-gp (ABCB1) [5],96%
same,inhibition at 5 µM,P-gp (ABCB1) [6],96%
same,inhibition at 1 µM,P-gp (ABCB1) [7],92%
same,inhibition at 0.1 µM,P-gp (ABCB1) [8],77%
same,inhibition at 0.01 µM,P-gp (ABCB1) [9],0%
same,pIC50,[10],7.28
same,half-life,[11],> 1 h
same,half-life,[12],> 1 h
same,half-life,[13],> 1 h
same,half-life,[14],0.583 h
same,CLH,[15],< 23 µL/min/mg
same,CLH,[16],< 23 µL/min/mg
same,CLH,[17],< 23 µL/min/mg
same,CLH,[18],39 µL/min/mg
same,pIC50,[19],7.46
same,pIC50,[20],6.63
same,pIC50,[21],< 5.00
same,pIC50,[22],< 5.00
COc1cc(NC(=O)c2cnc3ccccc3c2)c(C(=O)Nc2ccc(C3CCN(Cc4cccc(-n5ccnc5)c4)CC3)cc2)cc1OC,pEC50,[3],7.35
same,pIC50,Cytochrome P450 3A4 [23],6.48
same,pIC50,Cytochrome P450 3A4 [24],5.90
same,Activity,MES-SA/Dx5,1%
same,Papp B→A,[25],0.4 ×10⁻⁶ cm/s
same,solubility,[4]; buffer,Not Determined(Insoluble)
same,Papp A→B,[26],0.55 ×10⁻⁶ cm/s
same,recovery,[27],61%
same,recovery,[28],72%
same,efflux ratio,[29],0.7
CC(=O)O[C@H]1C(=O)[C@@]2(C)[C@H]([C@H](OC(=O)c3ccccc3)[C@]3(O)C[C@H](OC(=O)[C@H](O)[C@@H](NC(=O)c4ccccc4)c4ccccc4)C(C)=C1C3(C)C)[C@]1(OC(C)=O)CO[C@@H]1C[C@@H]2O [PACLITAXEL],Papp B→A,[25],17.1 ×10⁻⁶ cm/s
same,Papp A→B,[26],0.41 ×10⁻⁶ cm/s
same,recovery,[27],54%
same,recovery,[28],66%
same,Tmax,[30],8 h
same,Cmax,[31],14.9 ng/mL
same,AUCt,[32],95.9 ng·h/mL
same,MRT,[33],5.37 h
